From US6486128B1, “Method of using emamectin to treat fish parasites” (Schering-Plough Veterinary Corporation, priority 1999, dated 2002)

Experiments:
sea lice = details: commonly adopted dose rate of 25 μg kg^−1 biomass twice weekly; cited from earlier work
[1] = orally administered; cited from earlier work
[2] = Daily observation of fish for behavior, adverse drug reactions and mortalities (three studies); format: in vivo, Atlantic salmon, Salmo salar L.; details: at the dosage levels and dosage schedule of the invention
Protocol: Fish were held in replicate groups in plastic fiber tanks, each with a volume of 0.54 m^3. Each tank was supplied with natural sea water at ambient temperature (7-14° C.) and salinity (30-35 ppt), at flow rates of approximately 18 l. min^−1. The tanks were fitted with mesh screens over the water outlet to retain uneaten fish pellets. Fish were observed daily for behavior and adverse drug reactions. Fish mortalities and the occurrence of gross sea lice damage were also recorded.

parasites = assay: Sustained efficacy after emamectin treatment; format: in vivo

| Substance | control of sea lice (sea lice) | levels found to be toxic [1] | toxicity to fish populations [2] | sustained efficacy after treatment (parasites) [weeks] |
| --- | --- | --- | --- | --- |
| 22,23-dihydroavermectin B1 [ivermectin] | some control | greater than 25 μg kg^−1 biomass twice weekly | – | – |
| 4″-deoxy-4″ epimethylaminoavermectin B1 [emamectin] | – | – | not toxic | 8 to 10 |
